Legend:
[1] = Liquid, Closed cell (Static) method
[2] = excess molar enthalpy (molar enthalpy of mixing); xn = mol fraction of the nth substance listed; settings: 303.15 K, 101 kPa, Liquid, Calvet calorimetry

Cc1cccc(C)n1 [2,6-dimethylpyridine]
[1]
Settings	vapor or sublimation pressure [kPa]
283.37 K	0.3
288.33 K	0.42
293.3 K	0.581
298.3 K	0.794
303.27 K	1.07
313.27 K	1.879
323.24 K	3.163
333.21 K	5.14
343.2 K	8.101
353.14 K	12.23

Cc1cccc(C)n1 [2,6-dimethylpyridine] + C1CCCCC1
[2]
Settings	excess molar enthalpy [kcal/mol]
x1 = 0.09	0.123
x1 = 0.22	0.239
x1 = 0.275	0.269
x1 = 0.308	0.281
x1 = 0.434	0.299
x1 = 0.529	0.283
x1 = 0.669	0.226
x1 = 0.806	0.142
x1 = 0.8998	0.0748

Cc1cncc(C)c1 [3,5-dimethylpyridine]
[1]
Settings	vapor or sublimation pressure [kPa]
273.5 K	0.04
283.45 K	0.085
293.47 K	0.172
303.54 K	0.331
313.56 K	0.612
323.59 K	1.078
333.66 K	1.824
343.62 K	2.973
353.63 K	4.688

Cc1cncc(C)c1 [3,5-dimethylpyridine] + C1CCCCC1
[2]
Settings	excess molar enthalpy [kcal/mol]
x1 = 0.085	0.112
x1 = 0.221	0.227
x1 = 0.312	0.276
x1 = 0.386	0.295
x1 = 0.515	0.306
x1 = 0.635	0.279
x1 = 0.735	0.217
x1 = 0.83	0.149
x1 = 0.899	0.0951

C1CCCCC1 [cyclohexane]
[1]
Settings	vapor or sublimation pressure [kPa]
283.32 K	6.389
288.28 K	8.195
293.27 K	10.42
298.25 K	13.17
303.27 K	16.45
313.24 K	24.97
323.21 K	36.72
333.21 K	52.48
343.18 K	72.98
353.14 K	99.11
